Data taken from ChEMBL document CHEMBL1201862, “PubChem BioAssay data set” (2004).
Calls of active or inactive are those of the source.

Columns and labels:
[1] = biological target: Cytochrome P450 3A4 (Homo sapiens, UniProt P08684);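 note: CYP3A4 tested as one member of a cytochrome P450 panel screen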
[2] = biological target: T1, Cytochrome P450 1A2 (Homo sapiens, UniProt P05177);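 note: PubChem cytochrome P450 panel assay, CYP1A2 panel member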
T1 sequence (P05177 whole entry): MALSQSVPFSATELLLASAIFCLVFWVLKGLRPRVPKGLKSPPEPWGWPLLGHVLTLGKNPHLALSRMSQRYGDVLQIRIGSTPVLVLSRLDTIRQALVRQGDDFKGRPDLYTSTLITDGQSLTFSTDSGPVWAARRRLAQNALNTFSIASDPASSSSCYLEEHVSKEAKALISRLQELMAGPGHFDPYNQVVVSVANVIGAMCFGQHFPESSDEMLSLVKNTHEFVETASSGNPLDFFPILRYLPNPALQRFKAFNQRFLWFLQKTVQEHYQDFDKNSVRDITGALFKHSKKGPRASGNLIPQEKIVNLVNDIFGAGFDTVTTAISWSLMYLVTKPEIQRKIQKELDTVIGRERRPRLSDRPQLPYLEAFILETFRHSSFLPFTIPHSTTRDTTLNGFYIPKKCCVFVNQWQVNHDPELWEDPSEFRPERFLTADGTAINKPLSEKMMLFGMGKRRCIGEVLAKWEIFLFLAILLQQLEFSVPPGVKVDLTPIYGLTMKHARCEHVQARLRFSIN

[3] = biological target: Cytochrome P450 2C19 (Homo sapiens, UniProt P33261); assay: Cytochrome panel assay with activity outcomes. Panel member name: p450-cyp2c19 Compounds with AC50 equal or less than 10 uM are considered active; type: functional
[4] = tested on: INS1; assay: beta cell apoptosis inhibitors, cytokine rescue, dose response, luminescence, retest (AID 449756); type: functional, cell-based; settings: Rattus norvegicus;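 note: cell death triggered by IL-1 beta plus TNF-alpha plus IFN-gamma mixture; protective hits raise ATP signal compared with cytokine alone wells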
[5] = HEp-2 cell cytotoxicity, dose response, cytotoxicity control for RSV inhibitor project, HTS (AID 2410); type: functional; settings: human respiratory syncytial virus
[6] = cytotoxicity toward NIH3T3 fibroblasts, dose response, counter-screen, cell-based, ATP luminescence, mouse fibroblasts (AID 2010); type: functional;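 note: cells exposed to compound for about 90 hours before reading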
[7] = C. albicans growth with fluconazole, confirmation, fluorescence, retest (AID 2467); type: functional, cell-based
[8] = NIH-3T3 fibroblast cytotoxicity, dose response, cytotoxicity control, cell-based, fluorescence, Alamar Blue, secondary assay (AID 2327); type: functional;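 note: NIH-3T3 mouse fibroblasts cultured with fluconazole at 8 µg/mL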
[9] = inhibitors of intracellular T. cruzi replication, confirmation, NIH3T3 host cells, beta-gal luminescence (AID 2044); type: functional, cell-based;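 note: intracellular parasites grown in NIH/3T3 mouse fibroblasts as host cells; luminescent beta-galactosidase reporter signal from transgenic T. cruzi replicating inside host cells; inhibitors lower the luminescence signal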
[10] = growth suppression of beta-catenin-knockout colon cells, dose response, cell-based, HCT116, human colon tumor (AID 1045); type: functional;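 note: HCT116 colon tumor cells with beta catenin knocked out; cells exposed to compound for 60 hours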
[11] = growth suppression of PTEN-null colon cells, dose response, cell-based, HCT116 PTEN knockout (AID 1047); type: functional;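 note: HCT116 colon tumor cells with PTEN knocked out; cells exposed to compound for 60 hours before readout; potency for loss of cell viability measured by luminescence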
[12] = biological target: Cytochrome P450 2D6 (Homo sapiens, UniProt P10635);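 note: CYP2D6 member of a cytochrome P450 panel assay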
[13] = biological target: T2, Corticotropin-releasing factor receptor 2/Corticotropin-releasing factor-binding protein (Homo sapiens, UniProt P24387+Q13324); assay: Dose Response confirmation of uHTS hits for small molecule antagonists of the CRF-binding protein and CRF-R2 receptor complex.; type: functional; settings: read-out: IC50_Mean
T2 sequence (Q13324 whole entry): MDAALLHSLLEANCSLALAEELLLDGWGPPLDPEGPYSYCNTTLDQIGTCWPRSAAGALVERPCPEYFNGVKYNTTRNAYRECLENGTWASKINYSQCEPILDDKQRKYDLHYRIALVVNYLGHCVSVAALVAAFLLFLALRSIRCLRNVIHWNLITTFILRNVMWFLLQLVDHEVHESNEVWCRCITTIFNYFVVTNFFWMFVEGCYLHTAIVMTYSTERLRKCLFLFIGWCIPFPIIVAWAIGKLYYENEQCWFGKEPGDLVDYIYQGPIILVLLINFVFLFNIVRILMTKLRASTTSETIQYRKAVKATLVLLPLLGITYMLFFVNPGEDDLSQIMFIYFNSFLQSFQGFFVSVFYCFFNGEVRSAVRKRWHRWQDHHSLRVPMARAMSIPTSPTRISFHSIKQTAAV
T2 sequence (P24387 whole entry): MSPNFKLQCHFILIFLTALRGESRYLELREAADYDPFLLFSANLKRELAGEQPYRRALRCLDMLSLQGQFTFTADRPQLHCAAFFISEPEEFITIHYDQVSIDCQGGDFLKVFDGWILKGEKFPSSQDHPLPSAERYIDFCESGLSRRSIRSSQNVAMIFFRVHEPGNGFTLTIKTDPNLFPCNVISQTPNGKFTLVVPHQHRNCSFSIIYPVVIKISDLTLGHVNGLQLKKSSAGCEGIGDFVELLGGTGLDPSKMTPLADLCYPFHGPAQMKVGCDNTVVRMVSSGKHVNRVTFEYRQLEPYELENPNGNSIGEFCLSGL

[14] = biological target: T2, Corticotropin-releasing factor receptor 2/Corticotropin-releasing factor-binding protein; assay: activators of CRF receptor 2 with binding protein – uHTS hits, confirmation (AID 602473); type: functional; settings: read-out: EC50_Mean
[15] = biological target: Cytochrome P450 2C9 (Homo sapiens, UniProt P11712)
[16] = control 3'UTR Renilla luciferase suppression, dose response, counter-screen for Shn3 inhibitor project, cell-based, Clone20-Shn3RL, cherry-picked (AID 624133); type: functional
[17] = Shn3 3'UTR reporter inhibitors, dose response, cell-based, Clone20 osteoblasts, firefly luciferase, cherry-picked (AID 624132); type: functional;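 note: firefly luciferase luminescence from reporter carrying the Shn3 3'UTR in osteoblasts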

Cytochrome P450 2C19, sequence (P33261 whole entry): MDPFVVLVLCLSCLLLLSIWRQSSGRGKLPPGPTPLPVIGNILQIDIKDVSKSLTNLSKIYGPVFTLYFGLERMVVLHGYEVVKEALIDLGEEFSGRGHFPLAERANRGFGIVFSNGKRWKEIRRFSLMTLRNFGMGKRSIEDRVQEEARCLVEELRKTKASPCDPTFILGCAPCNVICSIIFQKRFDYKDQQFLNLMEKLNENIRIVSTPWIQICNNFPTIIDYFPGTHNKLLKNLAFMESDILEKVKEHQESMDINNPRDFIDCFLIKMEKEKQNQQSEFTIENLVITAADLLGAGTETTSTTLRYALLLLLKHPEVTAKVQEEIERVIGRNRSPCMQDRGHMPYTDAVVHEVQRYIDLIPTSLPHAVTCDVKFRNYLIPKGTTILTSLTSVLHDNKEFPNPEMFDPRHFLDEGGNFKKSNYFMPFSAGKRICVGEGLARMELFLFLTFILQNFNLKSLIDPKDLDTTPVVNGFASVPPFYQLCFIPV
Cytochrome P450 3A4, sequence (P08684 whole entry): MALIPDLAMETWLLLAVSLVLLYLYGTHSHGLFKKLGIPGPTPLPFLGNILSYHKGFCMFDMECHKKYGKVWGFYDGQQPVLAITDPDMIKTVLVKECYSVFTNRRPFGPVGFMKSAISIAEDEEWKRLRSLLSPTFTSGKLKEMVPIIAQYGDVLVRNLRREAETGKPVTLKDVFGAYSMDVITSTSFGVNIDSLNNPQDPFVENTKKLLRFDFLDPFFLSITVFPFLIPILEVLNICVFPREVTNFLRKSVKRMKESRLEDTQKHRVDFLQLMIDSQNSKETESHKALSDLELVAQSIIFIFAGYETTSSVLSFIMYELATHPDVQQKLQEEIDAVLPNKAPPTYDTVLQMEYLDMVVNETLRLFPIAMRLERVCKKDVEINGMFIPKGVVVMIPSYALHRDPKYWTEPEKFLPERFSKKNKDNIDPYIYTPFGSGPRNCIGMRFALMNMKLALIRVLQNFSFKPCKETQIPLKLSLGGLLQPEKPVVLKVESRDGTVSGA
Cytochrome P450 2D6, sequence (P10635 whole entry): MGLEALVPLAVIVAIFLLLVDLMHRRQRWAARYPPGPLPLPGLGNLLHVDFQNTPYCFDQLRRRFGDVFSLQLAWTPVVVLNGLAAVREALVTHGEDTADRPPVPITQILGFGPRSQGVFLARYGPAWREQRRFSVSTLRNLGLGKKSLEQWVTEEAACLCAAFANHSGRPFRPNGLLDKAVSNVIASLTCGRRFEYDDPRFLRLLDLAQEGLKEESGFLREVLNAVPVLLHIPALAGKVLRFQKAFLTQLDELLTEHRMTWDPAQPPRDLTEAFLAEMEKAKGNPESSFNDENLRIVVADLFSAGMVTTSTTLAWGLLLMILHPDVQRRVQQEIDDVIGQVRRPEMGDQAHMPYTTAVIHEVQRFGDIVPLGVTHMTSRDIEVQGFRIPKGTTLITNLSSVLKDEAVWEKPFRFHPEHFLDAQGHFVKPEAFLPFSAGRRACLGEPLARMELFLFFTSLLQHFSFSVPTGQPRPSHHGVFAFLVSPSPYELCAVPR
Cytochrome P450 2C9, sequence (P11712 whole entry): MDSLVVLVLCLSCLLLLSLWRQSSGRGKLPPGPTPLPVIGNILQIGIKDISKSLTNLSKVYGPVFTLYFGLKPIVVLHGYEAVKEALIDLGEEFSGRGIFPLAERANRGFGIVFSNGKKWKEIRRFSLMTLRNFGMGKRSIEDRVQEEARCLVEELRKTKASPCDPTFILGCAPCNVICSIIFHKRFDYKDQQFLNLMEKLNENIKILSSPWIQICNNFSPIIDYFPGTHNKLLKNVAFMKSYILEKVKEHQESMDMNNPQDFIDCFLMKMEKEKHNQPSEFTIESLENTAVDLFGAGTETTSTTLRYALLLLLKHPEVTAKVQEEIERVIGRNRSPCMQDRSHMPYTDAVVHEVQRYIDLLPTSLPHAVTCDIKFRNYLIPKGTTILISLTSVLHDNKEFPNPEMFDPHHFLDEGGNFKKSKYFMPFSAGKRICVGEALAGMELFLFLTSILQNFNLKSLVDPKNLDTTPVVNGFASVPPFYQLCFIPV

For `COc1ccccc1NC(=O)CCc1c(C)nc(O)c(C#N)c1C`, which AC50 [1] is on record?
The AC50 was 17.8 µM (inconclusive).

And the AC50 [2]?
The AC50 was 0.00631 µM (inconclusive).

And the AC50 [3]?
The AC50 was “inconclusive”.

For `Cc1nc2ccccc2c(=O)n1/N=C/c1c(O)ccc2ccccc12`, which AC50 [4] is on record?
Its AC50 is 6.35 µM (active).

With `Clc1ccccc1OCCCCN1CCCC1` as the compound, how does the AC50 [2] read?
Its AC50 is 15.8 µM (inconclusive).

And the AC50 ([3]; read-out: AC50)?
The AC50 was 28.2 µM (inconclusive).

For `O=C(Nc1ccncc1)Nc1cccc(C(F)(F)F)c1`, which CC50 [5] is on record?
Its CC50 is > 50 µM (active).

What does the source list for `Clc1ccc(OCCn2ccnc2)c2ccccc12`?
EC50 [6]: > 60 µM (not active); EC50 [7]: 3.78 µM (active); EC50 [8]: > 150 µM (inactive); EC50 [9]: 3.91 µM (active)

For `COc1ccc(OC)c(NC(=O)c2cc(-c3cc(Cl)ccc3O)[nH]n2)c1`, which EC50 [10] is on record?
The EC50 was 39.2 µM (active).

And the EC50 [11]?
The EC50 was 36.7 µM (active).

With `CC(/C=C/c1ccccc1)=N/NC(=O)CNC(=O)c1ccc2c(c1)OCO2` as the compound, how does the AC50 [12] read?
Its AC50 is 0.0501 µM (inconclusive).

What about the IC50 [13] of the same compound?
The IC50 was > 47.1 µM (inactive).

And the EC50 [14]?
The EC50 was > 53 µM (inactive).

Which CC50 [5] does the source give for `O=C(c1ccco1)N1CCN(c2ncnc3c2cnn3-c2ccccc2)CC1` here?
Its CC50 is 38.5 µM (active).

Which results are given for `O=c1c2ccccc2nc2n1C(CBr)CN2` (configuration not stated)?
IC50 [13]: > 47.1 µM (inactive); EC50 [14]: > 53 µM (inactive)

For `Cc1onc(-c2ccccc2Cl)c1C(=O)Nc1cccc2cccnc12`, which CC50 [5] is on record?
The CC50 was 3.16 µM (active).

Which AC50 [2] does the source give for `CC(C)OC(=O)/C(=C\c1ccc2c(c1)c1ccccc1n2C)NC(=O)c1ccccc1` here?
The AC50 was 2.24 µM (inconclusive).

And the AC50 ([3]; read-out: AC50)?
The AC50 was 2.51 µM (inconclusive).

What about the AC50 [15] of the same compound?
Its AC50 is 6.31 µM (inconclusive).

For `O=C(Nc1cccc(F)c1)N1CC[C@@]2(CCCN(C(=O)Oc3ccccc3)C2)C1`, which AC50 [12] is on record?
The AC50 was 20 µM (inconclusive).

And the AC50 [1]?
Its AC50 is 5.01 µM (inconclusive).

And the AC50 [2]?
The AC50 was 15.8 µM (inconclusive).

Which EC50 [7] does the source give for `CCc1ccc(C(=O)NNc2ccc(F)cc2)cc1` here?
Its EC50 is > 38 µM (not active).

What about the EC50 [8] of the same compound?
Its EC50 is 12.2 µM (active).

Which EC50 [7] does the source give for `O=C(NNc1ccccc1)C(CCO)C(=O)NNc1ccccc1` here?
Its EC50 is > 38 µM (not active).

And the EC50 [8]?
Its EC50 is 19.6 µM (active).

With `Cc1ccc(C(=O)Nc2nnc(-c3ccco3)o2)cc1C` as the compound, how does the IC50 [13] read?
Its IC50 is > 47.1 µM (inactive).

What about the EC50 [14] of the same compound?
The EC50 was > 53 µM (inactive).

With `CSc1nnnn1-c1ccc(Cl)cc1` as the compound, how does the CC50 [5] read?
The CC50 was 30.7 µM (active).

For `O=C(O)c1ccccc1NS(=O)(=O)c1ccc2c(c1)OCCO2`, which IC50 [13] is on record?
The IC50 was > 47.1 µM (inactive).

And the EC50 [14]?
The EC50 was > 53 µM (inactive).

With `Cc1cc(C)c(S(=O)(=O)Nc2nnc(C3CCCCC3)s2)c(C)c1` as the compound, how does the EC50 [7] read?
The EC50 was 1.93 µM (active).

And the EC50 [8]?
Its EC50 is > 160 µM (inactive).

With `CCCOc1ccccc1C1CC(=O)Nc2cc3c(cc21)OCCO3` (configuration not stated) as the compound, how does the AC50 [16] read?
Its AC50 is 10.2 µM (active).

What about the AC50 [17] of the same compound?
Its AC50 is 3.66 µM (active).

What does the source list for `O=C(O)c1ccc(Nc2cnc3ccccc3n2)cc1`?
EC50 [7]: > 38 µM (not active); EC50 [8]: > 160 µM (inactive)

Which AC50 [4] does the source give for `O=C(C1CCC1)N1CCc2cc(S(=O)(=O)Nc3ccc4c(c3)OCCO4)ccc21` here?
The AC50 was 5.88 µM (active).
